Source: patent US10376488B2, “Use of flavonoids in manufacturing compositions for wound healing” (ONENESS BIOTECH CO., Ltd, priority 2014, dated 2019)
Marks after values point to notes of the source that are not given here.

Tested on: diabetic wound
Test: Diabetic wound healing test in STZ-induced hyperglycemic rats
Type: in vivo
Design: CT50: wound half-closure time: unit not given beside the values
Conditions: 0.5% ointment applied to wounds, mean±SEM, n = 6
Description: After rats' body weight reach 300 g, the induction of hyperglycemia was carried out with streptozotocin (STZ) (65 mg/kg, ip administration). […] Hyperglycemic animals with a body weight less than 300 g were excluded, and random grouping was performed. Animals were anesthetized with pentobarbital and then their backs were shaved and disinfected. Three pieces of animal skin (full thickness) were harvested from the back of the animals at points 4, 6 and 8 cm from the midpoint of the two scapula with an 1- cm-diameter drilling round knife.
Wounds of each animal were applied with testing agents. New skins were harvested for examination after the end of experiment.
Analyzing the areas of the three wounds on the back of each rat by image pro with the area on day zero as the original wound area. The original wound area is subtracted by the wound area at each time point and then divided by the original wound area to serve as the percentage of wound healing. The average value of the three percentages of wound healing of each rat is considered as the respective would healing extent of each rat. The number of rats was 6 for each group of each test. Data is expressed as mean±SEM. P value is calculated for the test results by t-test against control group, where P<0.05 indicates significant differences, denoted *.
A 0.5% cirsimaritin composition was prepared in an ointment form, and was applied to the rats as treated above. The comparison between the percentages of wound healing at 9, 11, 13, and 15 days after administration, and the untreated control group is shown below. There were significant differences for each group.

## COc1cc2oc(-c3ccc(O)cc3)cc(=O)c2c(O)c1OC [cirsimaritin]
  CT50: wound half-closure time: 10.7 ± 0.4*
9 days after administration
  percentage of wound healing: 37.2 ± 3.9* %
11 days after administration
  percentage of wound healing: 51.5 ± 3.1* %
13 days after administration
  percentage of wound healing: 70.6 ± 3.5* %
15 days after administration
  percentage of wound healing: 83.3 ± 3.2* %
